“And” between values parts separate entries of the source, which are not always exact repeats. Equal entries are not always repeated. Inconclusive results and toxic doses are left out. The calls were made as follows: active = survival T/C of 150% or more; inactive = T/C below 125% in these data. Peptide text beside a SMILES is read from it. * marks the point of attachment. Boc = CC(C)(C)OC(=O)*
Tested on: P388 leukemia ip, CD2F1 mice, survival T/C
Assay: NCI In Vivo Anticancer Drug Screen. Data for tumor model P388 Leukemia (intraperitoneal) in CD2F1 (CDF1) mice
Conditions: endpoint: median survival time, higher = longer survival
Method in brief: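 Mice carrying the transplanted tumor received test compound or vehicle. Survival was recorded in each group, and the value is the treated-group measurement divided by that of the vehicle-treated control group.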

[1] = dose: 50.0 mg/kg/injection, schedule: Q01DX005 (ip), vehicle: Klucel (hydroxypropylcellulose) (HPC)
[2] = dose: 100.0 mg/kg/injection, schedule: Q01DX005 (ip), vehicle: Klucel (hydroxypropylcellulose) (HPC)
[3] = dose: 200.0 mg/kg/injection, schedule: Q01DX005 (ip), vehicle: Klucel (hydroxypropylcellulose) (HPC)
[4] = dose: 50.0 mg/kg/injection, schedule: Q01DX009 (ip), vehicle: saline with Tween-80
[5] = dose: 100.0 mg/kg/injection, schedule: Q01DX009 (ip), vehicle: saline with Tween-80
[6] = dose: 200.0 mg/kg/injection, schedule: Q01DX009 (ip), vehicle: saline with Tween-80
[7] = dose: 50.0 mg/kg/injection, schedule: Q01DX005 (ip), vehicle: saline with Tween-80
[8] = dose: 100.0 mg/kg/injection, schedule: Q01DX005 (ip), vehicle: saline with Tween-80
[9] = dose: 200.0 mg/kg/injection, schedule: Q01DX005 (ip), vehicle: saline with Tween-80
[10] = dose: 50.0 mg/kg/injection, schedule: Q01DX009 (ip), vehicle: Klucel (hydroxypropylcellulose) (HPC)
[11] = dose: 100.0 mg/kg/injection, schedule: Q01DX009 (ip), vehicle: Klucel (hydroxypropylcellulose) (HPC)
[12] = dose: 60.0 mg/kg/injection, schedule: Q01DX005 (ip), vehicle: saline with Tween-80
[13] = dose: 120.0 mg/kg/injection, schedule: Q01DX005 (ip), vehicle: saline with Tween-80
[14] = dose: 10.0 mg/kg/injection, schedule: Q01DX009 (ip), vehicle: saline with Tween-80
[15] = dose: 240.0 mg/kg/injection, schedule: Q01DX005 (ip), vehicle: saline with Tween-80
[16] = dose: 50.0 mg/kg/injection, schedule: Q04DX003 (ip), vehicle: saline with Tween-80
[17] = dose: 60.0 mg/kg/injection, schedule: Q01DX005 (ip), vehicle: Klucel (hydroxypropylcellulose) (HPC)
[18] = dose: 120.0 mg/kg/injection, schedule: Q01DX005 (ip), vehicle: Klucel (hydroxypropylcellulose) (HPC)
[19] = dose: 240.0 mg/kg/injection, schedule: Q01DX005 (ip), vehicle: Klucel (hydroxypropylcellulose) (HPC)

Measured: T/C

Oc1c(Br)cc(Br)cc1Oc1c(O)c(Br)c(Br)c(Br)c1Br
inactive: dose: 6.25 mg/kg/injection, schedule: Q01DX005 (ip), vehicle: Klucel (hydroxypropylcellulose) (HPC) 104 % of control | dose: 12.5 mg/kg/injection, schedule: Q01DX005 (ip), vehicle: Klucel (hydroxypropylcellulose) (HPC) 102 % of control | dose: 25.0 mg/kg/injection, schedule: Q01DX005 (ip), vehicle: Klucel (hydroxypropylcellulose) (HPC) 104 % of control | [1] 100 % of control and 101 % of control | [2] 100 % of control | [3] 99 % of control

CO[C@@H]1C2=CC=CC=C[C@H]2n2c(=O)n(-c3ccccc3)c(=O)n21
inactive: [1] 102 % of control | [2] 103 % of control

Cc1ccc(S(=O)(=O)C(=O)N2CCN(C(=O)S(=O)(=O)c3ccc(C)cc3)CC2)cc1
inactive: [4] 100 % of control | [5] 107 % of control | [6] 109 % of control

O=C1OC2CCCC1O2 (stereo not given)
inactive: [7] 106 % of control | [8] 100 % of control | [9] 98 % of control

CSc1nc(N)c(C(=O)N2CCCCC2)s1
inactive: [10] 100 % of control | [11] 100 % of control | dose: 200.0 mg/kg/injection, schedule: Q01DX009 (ip), vehicle: Klucel (hydroxypropylcellulose) (HPC) 89 % of control

COc1ccc(Cc2nnc(C)c3c(C)[nH]nc23)cc1OC
inactive: [10] 92 % of control | [11] 92 % of control

Nc1nc(N)c2[nH]c(=O)[nH]c2n1
inactive: [7] 103 % of control | [8] 103 % of control | [9] 118 % of control

CCC/C=[CH]/[Hg][Cl]
inactive: dose: 6.25 mg/kg/injection, schedule: Q04DX003 (ip), vehicle: other 110 % of control | dose: 12.5 mg/kg/injection, schedule: Q04DX003 (ip), vehicle: other 110 % of control

CCOC(=O)CC(CC(=O)OCC)(C(=O)OCC)C(=O)OCC
inactive: [4] 92 % of control | [5] 100 % of control | [6] 96 % of control | dose: 400.0 mg/kg/injection, schedule: Q01DX009 (ip), vehicle: saline with Tween-80 100 % of control

CC(C)NC(=O)C(C)O (stereo not given)
inactive: dose: 50.0 mg/kg/injection, schedule: Q01DX005 (ip), vehicle: saline 101 % of control | dose: 100.0 mg/kg/injection, schedule: Q01DX005 (ip), vehicle: saline 101 % of control | dose: 200.0 mg/kg/injection, schedule: Q01DX005 (ip), vehicle: saline 101 % of control

CCCCCCn1c(=O)cc2n(c1=O)CCC2
inactive: [12] 103 % of control | [13] 101 % of control

CC1=C2CC/C(C)=C/CCC3(C)OC3CC/C(C)=C/C2OC1=O (stereo not given)
inactive: dose: 1.25 mg/kg/injection, schedule: Q01DX009 (ip), vehicle: other 118 % of control | dose: 2.0 mg/kg/injection, schedule: Q01DX009 (ip), vehicle: Klucel (hydroxypropylcellulose) (HPC) 91 % of control | dose: 2.5 mg/kg/injection, schedule: Q01DX009 (ip), vehicle: other 105 % of control | dose: 4.0 mg/kg/injection, schedule: Q01DX009 (ip), vehicle: Klucel (hydroxypropylcellulose) (HPC) 89 % of control | dose: 5.0 mg/kg/injection, schedule: Q01DX009 (ip), vehicle: other 112 % of control | [14] 92 % of control | dose: 16.0 mg/kg/injection, schedule: Q01DX009 (ip), vehicle: Klucel (hydroxypropylcellulose) (HPC) 94 % of control | dose: 20.0 mg/kg/injection, schedule: Q01DX009 (ip), vehicle: saline with Tween-80 89 % of control | dose: 32.0 mg/kg/injection, schedule: Q01DX009 (ip), vehicle: Klucel (hydroxypropylcellulose) (HPC) 94 % of control | dose: 40.0 mg/kg/injection, schedule: Q01DX009 (ip), vehicle: saline with Tween-80 108 % of control

CCCC(C)C1(CC)C(=O)N(CCCl)C(=O)N(CCCl)C1=O (stereo not given)
inactive: [4] 93 % of control | [5] 99 % of control | [6] 93 % of control

CCN1CCCc2cc3c(C(F)(F)F)cc(=O)oc3cc21
inactive: [1] 97 % of control | [2] 106 % of control | [3] 97 % of control

CCCc1nc2c(=O)[nH]cnc2o1
inactive: dose: 50.0 mg/kg/injection, schedule: Q01DX001 (ip), vehicle: saline with Tween-80 100 % of control | dose: 100.0 mg/kg/injection, schedule: Q01DX001 (ip), vehicle: saline with Tween-80 100 % of control | dose: 200.0 mg/kg/injection, schedule: Q01DX001 (ip), vehicle: saline with Tween-80 100 % of control

CSCCC(NC(=O)OC(C)(C)C)C(=O)NC(Cc1ccccc1)C(=O)O (stereo not drawn) (Boc-Met-Phe-OH; configuration not given here)
inactive: [1] 100 % of control | [2] 100 % of control | [3] 106 % of control

COC(=O)c1cc(-c2ccc([N+](=O)[O-])cc2)c2c(=O)n(-c3ccccc3)[nH]c2n1
inactive: [12] 94 % of control | [13] 87 % of control | [15] 88 % of control

CN1C(=O)/C(=C2\Sc3ccccc3NC2=O)SC1=S
inactive: [16] 92 % of control | dose: 100.0 mg/kg/injection, schedule: Q04DX003 (ip), vehicle: saline with Tween-80 95 % of control | dose: 200.0 mg/kg/injection, schedule: Q04DX003 (ip), vehicle: saline with Tween-80 102 % of control

CC1C(=O)c2cc3c(cc2CCN(C)Cc2c1ccc1c2OCO1)OCO3 (stereo not given)
inactive: dose: 5.0 mg/kg/injection, schedule: Q01DX009 (ip), vehicle: saline with Tween-80 100 % of control | [14] 99 % of control | dose: 12.5 mg/kg/injection, schedule: Q01DX009 (ip), vehicle: saline with Tween-80 90 % of control | dose: 25.0 mg/kg/injection, schedule: Q04DX003 (ip), vehicle: saline with Tween-80 109 % of control | [4] 90 % of control | [16] 104 % of control

O=C(CNC(c1ccccc1)(c1ccccc1)c1ccccc1)OC(c1ccccc1)c1ccccc1
inactive: [4] 104 % of control | [5] 118 % of control | [6] 90 % of control

[O-][n+]1nccnc1N1CCCCC1
inactive: dose: 100.0 mg/kg/injection, schedule: Q04DX002 (ip), vehicle: saline 90 % of control | dose: 200.0 mg/kg/injection, schedule: Q04DX002 (ip), vehicle: saline 98 % of control | dose: 400.0 mg/kg/injection, schedule: Q04DX002 (ip), vehicle: saline 100 % of control

CCC1(C)C(=O)C(C)(CC)C1=O (stereo not given)
inactive: [12] 105 % of control | [13] 107 % of control | [15] 116 % of control

COc1ccc(S(=O)(=O)N/N=C\c2cccc([N+](=O)[O-])c2O)c(OC)c1OC
inactive: [7] 100 % of control | [8] 102 % of control | [9] 96 % of control

COC(=O)c1[nH]c(=O)c(C#N)c(C(=O)OC)c1C(=O)c1ccc2ccccc2c1
inactive: [17] 90 % of control | [18] 88 % of control | [19] 97 % of control

C[As](C)SCC1OC(n2ccc(=O)[nH]c2=O)C2OC(C)(C)OC12 (stereo not given)
inactive: dose: 12.5 mg/kg/injection, schedule: Q01DX009 (ip), vehicle: distilled water + Tween-80 103 % of control | dose: 25.0 mg/kg/injection, schedule: Q01DX009 (ip), vehicle: distilled water + Tween-80 110 % of control | dose: 50.0 mg/kg/injection, schedule: Q01DX009 (ip), vehicle: distilled water + Tween-80 116 % of control | dose: 100.0 mg/kg/injection, schedule: Q01DX009 (ip), vehicle: distilled water + Tween-80 113 % of control

C[Si](C)(C)O/C=C1/CCOC1=O
inactive: dose: 50.0 mg/kg/injection, schedule: Q01DX009 (ip), vehicle: saline 100 % of control and 87 % of control | dose: 100.0 mg/kg/injection, schedule: Q01DX009 (ip), vehicle: saline 98 % of control and 104 % of control | dose: 200.0 mg/kg/injection, schedule: Q01DX009 (ip), vehicle: saline 120 % of control | dose: 300.0 mg/kg/injection, schedule: Q01DX009 (ip), vehicle: saline 114 % of control

C=C1C(C2=[N+]([O-])CCN2O)OC2OC(C)(C)OC12 (stereo not given)
inactive: [17] 93 % of control | [18] 101 % of control | [19] 101 % of control

O=C(O)C1C2OC3C(OC(=O)C31)C2Br (stereo not given)
inactive: [7] 100 % of control | [8] 94 % of control | [9] 103 % of control

CC1=C(C)C(N2CCOCC2)CS(=O)(=O)O1 (stereo not given)
inactive: [1] 109 % of control | [2] 101 % of control

COC1=CC(=O)C(O)=C(CC2(C)C(C)CCC3(C)C2CCCC3(C)C)C1=O (stereo not given)
inactive: [10] 112 % of control | [11] 112 % of control
